Patent US9839642B2, “Beta-tetrazolyl-propionic acids as metallo-beta-lactamase inhibitors” (priority 2014, dated 2017)

How the values were obtained:
NDM-1 = NDM-1 (Klebsiella pneumoniae, UniProt C7C422); test: Enzyme activity: determination of IC50, fluorescence assay with CCF2-FA substrate; type: biochemical; settings: NDM-1 enzyme 1 pM, CCF2-FA 1.25 μM, 2 hours at 25° C.; read-out: NDM1 IC50
Summary of the method: (§1)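 In pH 7 phosphate buffer (100 mM) with 10 μM ZnSO4 and 0.005% Tween-20, CCF2-FA substrate (1.25 μM final) was hydrolysed for 2 h at 25 °C by NDM-1, IMP-1 or VIM-1 at 1, 2 or 30 pM in the presence of inhibitor at 20–0.00063 μM. Emission 460 nm/excitation 405 nm; 4-parameter curve fit gave IC50.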

VIM-1 = VIM-1 (Pseudomonas aeruginosa, UniProt A0A0F7KYQ8); test: as above; type: biochemical; settings: VIM-1 enzyme 30 pM, CCF2-FA 1.25 μM, 2 hours at 25° C.; read-out: VIM1 IC50
Summary of the method: as §1

IMP-1 = IMP-1 (Serratia marcescens, UniProt P52699); test: as above; type: biochemical; settings: IMP-1 enzyme 2 pM, CCF2-FA 1.25 μM, 2 hours at 25° C.; read-out: IMP1 IC50
Summary of the method: as §1

[1] = test system: Escherichia coli expressing NDM-1 (CLB30016); test: Antibiotic potentiation activity: synergistic concentration (MITC95) with imipenem, growth by OD600; type: cell-based; settings: E. coli CLB30016 (NDM-1), 95% inhibition of growth
Summary of the method: (§2)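 MITC95 = lowest inhibitor concentration giving 95% growth inhibition, read by absorbance after 22–24 h at 35° C. Compound range 200 μM to 0.195 μM, imipenem fixed at 1 or 4 μg/ml, bacteria in 1.1×CAMHB from saline suspension diluted 1:100.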

[2] = test system: Serratia marcescens expressing IMP-1 (CL5741); test: as above; type: cell-based; settings: S. marcescens CL5741 (IMP-1), 95% inhibition of growth
Summary of the method: as §2

[3] = test system: Klebsiella pneumoniae expressing VIM-1 (IHMA599644); test: as above; type: cell-based; settings: K. pneumoniae IHMA599644 (VIM-1), 95% inhibition of growth
Summary of the method: as §2

Sequence of IMP-1 (P52699 19-246, looked up, species assumed): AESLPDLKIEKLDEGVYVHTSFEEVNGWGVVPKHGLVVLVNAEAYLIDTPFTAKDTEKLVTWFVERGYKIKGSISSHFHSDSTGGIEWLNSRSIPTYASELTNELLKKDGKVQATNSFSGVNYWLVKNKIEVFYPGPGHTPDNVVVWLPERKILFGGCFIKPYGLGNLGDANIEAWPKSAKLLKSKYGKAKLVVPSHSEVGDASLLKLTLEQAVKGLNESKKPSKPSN
Sequence of NDM-1 (C7C422 29-270, looked up, species assumed): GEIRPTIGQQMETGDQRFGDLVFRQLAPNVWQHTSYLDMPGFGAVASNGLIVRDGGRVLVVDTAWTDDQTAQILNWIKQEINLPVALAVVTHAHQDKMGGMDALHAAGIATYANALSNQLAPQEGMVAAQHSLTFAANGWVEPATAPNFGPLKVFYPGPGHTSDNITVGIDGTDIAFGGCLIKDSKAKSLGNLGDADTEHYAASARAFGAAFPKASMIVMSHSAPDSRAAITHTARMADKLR

CCC[C@H](C(=O)O)[C@H](Cc1ccc(C2CCNCC2)nc1)c1nnn[nH]1 [Example 408, (S)-2-((S)-2-(6-(piperidin-4-yl)pyridin-3-yl)-1-(1H-tetrazol-5-yl)ethyl)pentanoic acid]
IC50 (NDM-1): 0.25 µM
IC50 (VIM-1): 0.00649 µM
IC50 (IMP-1): 3.45 µM
NDM1 EC30016 MITC95 [1]: 7.813 µM
IMP1 SM5741 MITC95 [2]: 75 µM
VIM1 KP599644 MITC95 [3]: 25 µM

CCC[C@H](C(=O)O)[C@H](Cc1ccc(C2CCNC2)nc1)c1nnn[nH]1 (stereo partly drawn) [Example 409, (2S)-2-((1S)-2-(6-(pyrrolidin-3-yl)pyridin-3-yl)-1-(1H-tetrazol-5-yl)ethyl)pentanoic acid]
IC50 (NDM-1): 0.81 µM
IC50 (VIM-1): 0.014 µM
IC50 (IMP-1): 19.8 µM
NDM1 EC30016 MITC95 [1]: 12.5 µM
IMP1 SM5741 MITC95 [2]: 200 µM
VIM1 KP599644 MITC95 [3]: 25 µM

CCC[C@H](C(=O)O)[C@H](Cc1ccc(C2CCN(C=N)C2)nc1)c1nnn[nH]1 (stereo partly drawn) [Example 410, (2S)-2-((1S)-2-(6-(1-(iminomethyl)pyrrolidin-3-yl)pyridin-3-yl)-1-(1H-tetrazol-5-yl)ethyl)pentanoic acid]
IC50 (NDM-1): 0.417 µM
IC50 (VIM-1): 0.00623 µM
IC50 (IMP-1): 6.03 µM
NDM1 EC30016 MITC95 [1]: 7.813 µM
IMP1 SM5741 MITC95 [2]: 75 µM
VIM1 KP599644 MITC95 [3]: 25 µM

CCC[C@H](C(=O)O)[C@H](Cc1ccc(C2CCN(C(=N)N)C2)nc1)c1nnn[nH]1 (stereo partly drawn) [Example 411, (2S)-2-((1S)-2-(6-(1-carbamimidoylpyrrolidin-3-yl)pyridin-3-yl)-1-(1H-tetrazol-5-yl)ethyl)pentanoic acid]
IC50 (NDM-1): 0.179 µM
IC50 (VIM-1): 0.00296 µM
IC50 (IMP-1): 2.77 µM
NDM1 EC30016 MITC95 [1]: 4.688 µM
IMP1 SM5741 MITC95 [2]: 50 µM
VIM1 KP599644 MITC95 [3]: 12.5 µM

CCC[C@H](C(=O)O)[C@H](Cc1ccc(C2CCNCC2)cc1)c1nnn[nH]1 [Example 412, (S)-2-((S)-2-(4-(piperidin-4-yl)phenyl)-1-(1H-tetrazol-5-yl)ethyl)pentanoic acid]
IC50 (NDM-1): 0.0714 µM
IC50 (VIM-1): 0.00449 µM
IC50 (IMP-1): 0.275 µM
NDM1 EC30016 MITC95 [1]: 9.375 µM
IMP1 SM5741 MITC95 [2]: 9.375 µM
VIM1 KP599644 MITC95 [3]: 12.5 µM

CCC[C@H](C(=O)O)[C@H](Cc1ccc(C2CCNC2)cc1)c1nnn[nH]1 (stereo partly drawn) [Example 413, (2S)-2-((1S)-2-(4-(pyrrolidin-3-yl)phenyl)-1-(1H-tetrazol-5-yl)ethyl)pentanoic acid]
IC50 (NDM-1): 0.146 µM
IC50 (VIM-1): 0.0046 µM
IC50 (IMP-1): 1.1 µM
NDM1 EC30016 MITC95 [1]: 6.25 µM
IMP1 SM5741 MITC95 [2]: 25 µM
VIM1 KP599644 MITC95 [3]: 12.5 µM

CCC[C@H](C(=O)O)[C@H](Cc1ccc(C2CCN(C(=N)N)C2)cc1)c1nnn[nH]1 (stereo partly drawn) [Example 414, (2S)-2-((1S)-2-(4-(1-carbamimidoylpyrrolidin-3-yl)phenyl)-1-(1H-tetrazol-5-yl)ethyl)pentanoic acid]
IC50 (NDM-1): 0.069 µM
IC50 (VIM-1): 0.00152 µM
IC50 (IMP-1): 0.214 µM
NDM1 EC30016 MITC95 [1]: 4.688 µM
IMP1 SM5741 MITC95 [2]: 9.375 µM
VIM1 KP599644 MITC95 [3]: 12.5 µM

CCC[C@H](C(=O)O)[C@H](Cc1ccc(C2CCN(C=N)C2)cc1)c1nnn[nH]1 (stereo partly drawn) [Example 415, (2S)-2-((1S)-2-(4-(1-(iminomethyl)pyrrolidin-3-yl)phenyl)-1-(1H-tetrazol-5-yl)ethyl)pentanoic acid]
IC50 (NDM-1): 0.121 µM
IC50 (VIM-1): 0.00432 µM
IC50 (IMP-1): 0.39 µM
NDM1 EC30016 MITC95 [1]: 9.375 µM
IMP1 SM5741 MITC95 [2]: 12.5 µM
VIM1 KP599644 MITC95 [3]: 18.75 µM

CCC[C@H](C(=O)[O-])[C@H](Cc1cc[n+](C)cc1)c1nnn[nH]1 [Example 417, (S)-2-((S)-2-(1-methylpyridin-1-ium-4-yl)-1-(1H-tetrazol-5-yl)ethyl)pentanoate]
IC50 (NDM-1): 1.28 µM
IC50 (VIM-1): 0.0451 µM
IC50 (IMP-1): 11.1 µM
NDM1 EC30016 MITC95 [1]: 4.688 µM
IMP1 SM5741 MITC95 [2]: 200 µM
VIM1 KP599644 MITC95 [3]: 9.375 µM

CCC[C@H](C(=O)[O-])[C@H](Cc1ccc(C2CC[N+](C)(C)C2)cc1)c1nnn[nH]1 (stereo partly drawn) [Example 418, (2S)-2-((1S)-2-(4-(1,1-dimethylpyrrolidin-1-ium-3-yl)phenyl)-1-(1H-tetrazol-5-yl)ethyl)pentanoate]
IC50 (NDM-1): 0.405 µM
IC50 (VIM-1): 0.0308 µM
IC50 (IMP-1): 1.99 µM
NDM1 EC30016 MITC95 [1]: 18.75 µM
IMP1 SM5741 MITC95 [2]: 37.5 µM
VIM1 KP599644 MITC95 [3]: 25 µM

CCC[C@H](C(=O)[O-])[C@H](Cc1ccc(C[N+](C)(C)C)cc1)c1nnn[nH]1 [Example 419, (S)-2-((S)-1-(1H-tetrazol-5-yl)-2-(4-((trimethylammonio)methyl)phenyl)ethyl)pentanoate]
IC50 (NDM-1): 0.869 µM
IC50 (VIM-1): 0.00551 µM
IC50 (IMP-1): 5.92 µM
NDM1 EC30016 MITC95 [1]: 6.25 µM
IMP1 SM5741 MITC95 [2]: 50 µM
VIM1 KP599644 MITC95 [3]: 12.5 µM

CC(C)(C)[C@H](C(=O)O)C(Cc1ccc(N)nc1)c1nnn[nH]1 (stereo partly drawn) [Example 420, (2R,3S)-4-(6-aminopyridin-3-yl)-2-(tert-butyl)-3-(1H-tetrazol-5-yl)butanoic acid]
IC50 (NDM-1): 0.0724 µM
IC50 (VIM-1): 0.0192 µM
IC50 (IMP-1): 0.0517 µM
NDM1 EC30016 MITC95 [1]: 0.3906 µM
IMP1 SM5741 MITC95 [2]: 1.563 µM
VIM1 KP599644 MITC95 [3]: 2.344 µM

CC(C)(C)[C@H](C(=O)O)[C@H](Cc1ccc(O)nc1)c1nnn[nH]1 [Example 421, (2R,3S)-2-(tert-butyl)-4-(6-hydroxypyridin-3-yl)-3-(1H-tetrazol-5-yl)butanoic acid]
IC50 (NDM-1): 0.157 µM
IC50 (VIM-1): 0.0249 µM
IC50 (IMP-1): 0.156 µM
NDM1 EC30016 MITC95 [1]: 25 µM
IMP1 SM5741 MITC95 [2]: 100 µM
VIM1 KP599644 MITC95 [3]: 25 µM

CC(C)(C)[C@H](C(=O)O)[C@H](Cc1ccc(NC(=N)N)nc1)c1nnn[nH]1 [Example 422, (2R,3S)-2-(tert-butyl)-4-(6-guanidinopyridin-3-yl)-3-(1H-tetrazol-5-yl)butanoic acid]
IC50 (NDM-1): 0.228 µM
IC50 (VIM-1): 0.00401 µM
IC50 (IMP-1): 0.104 µM
NDM1 EC30016 MITC95 [1]: 12.5 µM
IMP1 SM5741 MITC95 [2]: 25 µM
VIM1 KP599644 MITC95 [3]: 6.25 µM

CC(C)(C)[C@H](C(=O)O)[C@@H](Cc1cccc2sc(Br)nc12)c1nnn[nH]1 [Example 423, (2R,3R)-4-(2-bromobenzo[d]thiazol-4-yl)-2-(tert-butyl)-3-(1H-tetrazol-5-yl)butanoic acid]
IC50 (NDM-1): 0.00122 µM
IC50 (VIM-1): 0.000989 µM
IC50 (IMP-1): 0.00277 µM
NDM1 EC30016 MITC95 [1]: 12.5 µM
IMP1 SM5741 MITC95 [2]: 25 µM
VIM1 KP599644 MITC95 [3]: 50 µM

CC(C)(C)[C@H](C(=O)O)[C@H](Cc1cccc2sc(N)nc12)c1nnn[nH]1 [Example 424, (2R,3S)-4-(2-aminobenzo[d]thiazol-4-yl)-2-(tert-butyl)-3-(1H-tetrazol-5-yl)butanoic acid]
IC50 (NDM-1): 0.00268 µM
IC50 (VIM-1): 0.0108 µM
IC50 (IMP-1): 0.00929 µM
NDM1 EC30016 MITC95 [1]: 12.5 µM
IMP1 SM5741 MITC95 [2]: 25 µM
VIM1 KP599644 MITC95 [3]: 200 µM

CCC[C@H](C(=O)O)[C@H](Cc1ccc(Br)s1)c1nnn[nH]1 [Example 425, (S)-2-((S)-2-(5-bromothiophen-2-yl)-1-(1H-tetrazol-5-yl)ethyl)pentanoic acid]
IC50 (NDM-1): 0.105 µM
IC50 (VIM-1): 0.00363 µM
IC50 (IMP-1): 0.282 µM
NDM1 EC30016 MITC95 [1]: 12.5 µM
IMP1 SM5741 MITC95 [2]: 25 µM
VIM1 KP599644 MITC95 [3]: 12.5 µM

CC(C)(C)C(C(=O)O)[C@H](Cc1ccc(Br)s1)c1nnn[nH]1 (stereo partly drawn) [Example 426, (3S)-4-(5-bromothiophen-2-yl)-2-(tert-butyl)-3-(1H-tetrazol-5-yl)butanoic acid]
IC50 (NDM-1): 0.142 µM
IC50 (VIM-1): 0.0495 µM
IC50 (IMP-1): 0.0279 µM
NDM1 EC30016 MITC95 [1]: 12.5 µM
IMP1 SM5741 MITC95 [2]: 2.344 µM
VIM1 KP599644 MITC95 [3]: 150 µM

CC(C)(C)[C@H](C(=O)O)[C@H](Cc1ccc(NCCN)nc1)c1nnn[nH]1.O=C(O)C(F)(F)F [Example 427, 2-((5-((2S,3R)-3-carboxy-4,4-dimethyl-2-(1H-tetrazol-5-yl)pentyl)pyridin-2-yl)amino)ethan-1-aminium 2,2,2-trifluoroacetate]
IC50 (NDM-1): 0.119 µM
IC50 (VIM-1): 0.0179 µM
IC50 (IMP-1): 0.342 µM
NDM1 EC30016 MITC95 [1]: 1.563 µM
IMP1 SM5741 MITC95 [2]: 3.125 µM
VIM1 KP599644 MITC95 [3]: 9.375 µM

CC(C)(C)[C@H](C(=O)O)[C@H](Cc1ccc(C2=CCNC2)nc1)c1nnn[nH]1.O=C(O)C(F)(F)F [Example 429, 3-(5-((2S,3R)-3-carboxy-4,4-dimethyl-2-(1H-tetrazol-5-yl)pentyl)pyridin-2-yl)-2,5-dihydro-1H-pyrrol-1-ium 2,2,2-trifluoroacetate]
IC50 (NDM-1): 0.781 µM
IC50 (VIM-1): 0.0238 µM
IC50 (IMP-1): 0.615 µM
NDM1 EC30016 MITC95 [1]: 12.5 µM
IMP1 SM5741 MITC95 [2]: 18.75 µM
VIM1 KP599644 MITC95 [3]: 25 µM
